23 molecules from US20160046592A1, “PHARMACEUTICAL COMPOSITION FOR THE TREATMENT OF DIABETES” (Ajinomoto Co., Inc., priority 2013, published 2016) can be followed below.

The structures appear in SMILES notation. Counter-ions that a name gives are not always drawn.

For the first test, the target named is T1, PPAR-α (Homo sapiens, UniProt Q07869).
T1 construct: expressed in transfected cells; host or cells: CV-1 (African green monkey kidney)
T1 sequence (Q07869 167-468): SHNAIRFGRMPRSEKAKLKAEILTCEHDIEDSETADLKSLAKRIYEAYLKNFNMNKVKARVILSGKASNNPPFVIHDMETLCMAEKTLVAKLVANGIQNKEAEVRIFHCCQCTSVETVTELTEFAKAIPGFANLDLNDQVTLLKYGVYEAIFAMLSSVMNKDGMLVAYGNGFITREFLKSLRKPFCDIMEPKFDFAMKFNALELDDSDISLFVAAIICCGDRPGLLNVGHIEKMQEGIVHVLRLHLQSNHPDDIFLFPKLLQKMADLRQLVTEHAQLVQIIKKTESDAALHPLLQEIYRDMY
As to the kind of experiment: Measurement of PPAR-α activity (GAL4 luciferase reporter assay in CV-1 cells). The format is cell-based. Particulars: 100(A/B): A = maximum PPAR-α activity of test compound at 3, 10, 30 and 100 μM, B = activity of the compound of WO/2011/058154 at 100 μM, 18 to 20 hours. Here is the method:
The PPAR-α activity was measured according to the published article (THE JOURNAL OF BIOLOGICAL CHEMISTRY Vol. 270, No 0.22: 12953-12956, 1995).
Plasmids used for the PPAR-α activity measurement were constructed as follows. A luciferase expression plasmid (UAS×5-TK-Luc) used was obtained by introducing a sequence in which five yeast GAL4-binding sequences are linked in tandem into a portion upstream of a thymidine kinase promoter of pTAL-Luc (Takara Bio Inc., 6252-1). A PPAR-α receptor expression plasmid (hGR-GAL4-hPPARα) used was obtained by introducing a human GR N-terminal region (1-76aa), a yeast GAL4 DNA-binding region (1-147aa), and a PPARα ligand-binding region (167-468aa) between Not I and Sal I sites of pExchange-1 Core Vector (Invitrogen, 211176).
A reporter assay was conducted by the following method using African green monkey kidney-derived CV-1 cells. The CV-1 cells were seeded in a 96-well plate (Thermo Fisher Scientific K.K., 4938) at 2×10^4 cells/well by using a 10% FBS-containing DMEM (NACALAI TESQUE, INC., 0845874) medium. After culturing under conditions of 37° C. and 5% CO2 for 2 hours, the cells were transfected with the plasmids. The transfection was conducted by using Lipofectamine LTX (Invitrogen, 15338-100) according to the attached manual. The plasmid solution was prepared by adding a mixture solution of the luciferase expression plasmid and the PPAR-α receptor expression plasmid to OPTI-MEM I (Invitrogen, 11058-021). After the transfection, the test compound was added, and the cells were cultured at 37° C. in the presence of 5% CO2 for 18 to 20 hours. After the culturing, the luciferase activity was measured with Luminescensor JNR (ATTO) by using Bright-Glo (Promega, E2620).
The fold induction of PPAR-α by each test compound was calculated by the following method. A relative fold induction (%) of PPAR-α by the test compound was defined as 100 (A/B), where A represents the maximum value of the PPAR-α activities of the test compound at 3 μM, 10 μM, 30 μM, and 100 μM, and B represents the PPAR-α activity of the compound of WO/2011/058154 at 100 μM.
On the technique in general: Reporter assays use an easily measured gene product as a stand-in for the process of interest.
Consider `NC(=O)C1CC[C@@H](C(=O)O)N1C(=O)c1cccc(COc2ccc(-c3cc(F)c(F)c4ccoc34)cc2)c1` (single isomer, unassigned) [Example 4, (2S,5R) or (2S,5S)-5-Carbamoyl-1-[3-[[4-(4,5-difluorobenzofuran-7-yl)phenoxy]methyl]benzoyl]pyrrolidine-2-carboxylic Acid], for which the “Relative fold induction (%) of PPAR α” value is reported as 10%.

As for `CSc1cc(F)c(F)cc1-c1ccc(OCc2cccc(C(=O)N3C(C(N)=O)CC[C@H]3C(=O)O)c2)cc1` (single isomer, unassigned) [Example 58, (2S,5S) or (2S,5R)-5-Carbamoyl-1-[3-[[4-(4,5-difluoro-2-methylsulfanyl-phenyl)phenoxy]methyl]benzoyl]pyrrolidine-2-carboxylic Acid], the “Relative fold induction (%) of PPAR α” value is given as 7.8%.

As for `NC(=O)C1CC[C@@H](C(=O)O)N1C(=O)c1cccc(COc2ccc(-c3cc(F)c(F)c4ccoc34)cc2)c1` (single isomer, unassigned) [Example 76, (2S,5S) or (2S,5R)-5-Carbamoyl-1-[3-[[4-(4,5-difluorobenzofuran-7-yl)phenoxy]methyl]benzoyl]pyrrolidine-2-carboxylic Acid], the “Relative fold induction (%) of PPAR α” value came to 42%.

The same test, now with this note: 100(A/B): A = maximum PPAR-α activity of test compound at 3, 10, 30 and 100 μM, B = activity of the compound of WO/2011/058154 at 100 μM, 18 to 20 hours, read-out: Relative fold induction (%) of PPAR α.
`CSc1cc(F)c(F)cc1-c1ccc(OCc2cccc(C(=O)N3C(C(N)=O)CC[C@H]3C(=O)O)c2)cc1` (single isomer, unassigned) [Example 57, (2S,5R) or (2S,5S)-5-Carbamoyl-1-[3-[[4-(4,5-difluoro-2-methylsulfanyl-phenyl)phenoxy]methyl]benzoyl]pyrrolidine-2-carboxylic Acid]: the Emax is 6.7%.

With `COC1CCN(C(=O)c2cccc(COc3ccc(-c4cc(F)c(F)cc4SC)cc3)c2)C1C(=O)O` (stereo in doubt) [Example 33, (2S,3S)-1-[3-[[4-(4,5-Difluoro-2-methylsulfanyl-phenyl)phenoxy]methyl]benzoyl]-3-methoxy-pyrrolidine-2-carboxylic Acid], the Emax amounted to 13%.

`NC(=O)CN(CC(=O)O)C(=O)c1cccc(COc2ccc(-c3cc(F)c(F)c4ccoc34)cc2)c1` [Example 1, 2-[(2-Amino-2-oxo-ethyl)-[3-[[4-(4,5-difluorobenzofuran-7-yl)phenoxy]methyl]benzoyl]amino]acetic Acid]: the Emax worked out at 12%.

On to `O=C(O)[C@@H]1[C@@H](O)CCN1C(=O)c1cccc(COc2ccc(-c3cc(F)c(F)c4ccoc34)cc2)c1` [Example 2, (2S,3S)-1-[3-[[4-(4,5-Difluorobenzofuran-7-yl)phenoxy]methyl]benzoyl]-3-hydroxy-pyrrolidine-2-carboxylic Acid], for which the Emax was 5%.

With `O=C(O)[C@@H]1[C@H](O)CCN1C(=O)c1cccc(COc2ccc(-c3cc(F)c(F)c4ccoc34)cc2)c1` [Example 3, (2S,3R)-1-[3-[[4-(4,5-Difluorobenzofuran-7-yl)phenoxy]methyl]benzoyl]-3-hydroxy-pyrrolidine-2-carboxylic Acid], the Emax turned out to be 11%.

Turning to `CSc1cc(F)c(F)cc1-c1ccc(OCc2cccc(C(=O)N3CC[C@H](O)[C@H]3C(=O)O)c2)cc1` [Example 5, (2S,3S)-1-[3-[[4-(4,5-Difluoro-2-methylsulfanyl-phenyl)phenoxy]methyl]benzoyl]-3-hydroxy-pyrrolidine-2-carboxylic Acid], the Emax came out at 10%.

With `CSc1cc(F)c(F)cc1-c1ccc(OCc2cccc(C(=O)N(CCC#N)CC(=O)O)c2)cc1` [Example 7, 2-[2-Cyanoethyl-[3-[[4-(4,5-difluoro-2-methylsulfanyl-phenyl)phenoxy]methyl]benzoyl]amino]acetic Acid], the Emax amounted to 16%.

Take `CS(=O)(=O)CCN(CC(=O)O)C(=O)c1cccc(COc2ccc(-c3cc(F)c(F)c4ccoc34)cc2)c1` [Example 8, 2-[[3-[[4-(4,5-Difluorobenzofuran-7-yl)phenoxy]methyl]benzoyl]-(2-methylsulfonylethyl)amino]acetic Acid]: the Emax amounted to 11%.

`O=C(O)CN(CC1CCOCC1)C(=O)c1cccc(COc2ccc(-c3cc(F)c(F)c4ccoc34)cc2)c1` [Example 9, 2-[[3-[[4-(4,5-Difluorobenzofuran-7-yl)phenoxy]methyl]benzoyl]-(tetrahydropyran-4-ylmethyl)amino]acetic Acid]: the Emax is 24%.

For the molecule `CSc1cc(F)c(F)cc1-c1ccc(OCc2cccc(C(=O)N(CC(N)=O)CC(=O)O)c2)cc1` [Example 10, 2-[(2-Amino-2-oxo-ethyl)-[3-[[4-(4,5-difluoro-2-methylsulfanyl-phenyl)phenoxy]methyl]benzoyl]amino]acetic Acid], the Emax was 6.7%.

`CN(C)C(=O)CN(CC(=O)O)C(=O)c1cccc(COc2ccc(-c3cc(F)c(F)c4ccoc34)cc2)c1` [Example 11, 2-[[3-[[4-(4,5-Difluorobenzofuran-7-yl)phenoxy]methyl]benzoyl]-[2-(dimethylamino)-2-oxo-ethyl]amino]acetic Acid]: the Emax was determined as 7.4%.

Consider `O=C(O)CN(CC1CCNCC1)C(=O)c1cccc(COc2ccc(-c3cc(F)c(F)c4ccoc34)cc2)c1` [Example 12, 2-[[3-[[4-(4,5-Difluorobenzofuran-7-yl)phenoxy]methyl]benzoyl]-(4-piperidylmethyl)amino]acetic Acid Trifluoroacetate], for which the Emax was found to be 4.7%.

On to `CN(C)CCN(CC(=O)O)C(=O)c1cccc(COc2ccc(-c3cc(F)c(F)c4ccoc34)cc2)c1` [Example 13, 2-[[3-[[4-(4,5-Difluorobenzofuran-7-yl)phenoxy]methyl]benzoyl]-(2-dimethylaminoethyl)amino]acetic Acid Trifluoroacetate], for which the Emax worked out at 5.3%.

For the molecule `Cc1coc2c(-c3ccc(OCc4cccc(C(=O)N(CCS(C)(=O)=O)CC(=O)O)c4)cc3)cc(F)c(F)c12` [Example 14, 2-[[3-[[4-(4,5-Difluoro-3-methyl-benzofuran-7-yl)phenoxy]methyl]benzoyl]-(2-methylsulfonylethyl)amino]acetic Acid], the Emax worked out at 7.5%.

On to `CNC(=O)CN(CC(=O)O)C(=O)c1cccc(COc2ccc(-c3cc(F)c(F)c4ccoc34)cc2)c1` [Example 15, 2-[[3-[[4-(4,5-Difluorobenzofuran-7-yl)phenoxy]methyl]benzoyl]-[2-(methylamino)-2-oxo-ethyl]amino]acetic Acid], for which the Emax is 12%.

As for `CS(=O)(=O)NCCN(CC(=O)O)C(=O)c1cccc(COc2ccc(-c3cc(F)c(F)c4ccoc34)cc2)c1` [Example 16, 2-[[3-[[4-(4,5-Difluorobenzofuran-7-yl)phenoxy]methyl]benzoyl]-[2-(methanesulfonamido)ethyl]amino]acetic Acid], the Emax is 12%.

With `CSc1cc(F)c(F)cc1-c1ccc(OCc2cccc(C(=O)N(CCNS(C)(=O)=O)CC(=O)O)c2)cc1` [Example 17, 2-[[3-[[4-(4,5-Difluoro-2-methylsulfanyl-phenyl)phenoxy]methyl]benzoyl]-[2-(methanesulfonamido)ethyl]amino]acetic Acid], the Emax was 13%.

In the case of `CC(C)(O)CCN(CC(=O)O)C(=O)c1cccc(COc2ccc(-c3cc(F)c(F)c4ccoc34)cc2)c1` [Example 18, 2-[[3-[[4-(4,5-Difluorobenzofuran-7-yl)phenoxy]methyl]benzoyl]-(3-hydroxy-3-methyl-butyl)amino]acetic Acid], the Emax was found to be 23%.

Regarding `CSc1cc(F)c(F)cc1-c1ccc(OCc2cccc(C(=O)N(CC(=O)O)Cc3ccncc3)c2)cc1` [Example 19, 2-[[3-[[4-(4,5-Difluoro-2-methylsulfanyl-phenyl)phenoxy]methyl]benzoyl]-(4-pyridylmethyl)amino]acetic Acid Trifluoroacetate], the Emax was 21%.

In the case of `CSc1cc(F)c(F)cc1-c1ccc(OCc2cccc(C(=O)N(CCC(C)O)CC(=O)O)c2)cc1` (centres unmarked) [Example 21, 2-[[3-[[4-(4,5-Difluoro-2-methylsulfanyl-phenyl)phenoxy]methyl]benzoyl]-(3-hydroxybutyl)amino]acetic Acid], the Emax turned out to be 15%.
